Laboratory results: patent US7049334B2, “Enhancement of learning and memory and treatment of amnesia” (priority 2001, dated 2006)

Tests used:
rats (spatial memory) = experiment: Morris water maze; type: in vivo; settings: L-NAME intracerebroventricular (1 mmole/10 mL) 10 min before first trial of daily training
Method: Morris water maze: Morris water maze was performed in a circular pool (224 cm in diameter, 46 cm in height) located in a room with distinctive visual cues. Water was filled to a depth of 36 cm and a transparent plastic platform (25×25 cm, 32 cm in height) was located at the center of a fixed quadrant. Rats were trained for two days in the task environment: free-swimming in the pool without the transparent plastic platform. Each training session was 2 min and the rats were picked up from the pool by an experimenter. Then, rats received 4 consecutive daily training trials for the following six days. During each training trial, each rat was placed into the water randomly from one of the quadrants. The rat had to swim until it climbed onto the plastic platform submerged underneath the water. The time duration from being placed into the water to climbing onto the plastic platform was recorded and defined as escape latency. […] Each rat stayed on the platform for 60 s, which also served as the interval of trial. Compound 1 (1 mg/kg) or vehicle was daily injected to each rat 10 min before the first training trial. After the last training trial of each day, each rat was dried by a towel, and an electric heater was placed in its home cage.
Substantial evidence implicates the hippocampus in acquisition and retention of spatial information. See, e.g., Ohon et al. (1979) Behav. Brain Sci. 2: 316–365; and Barnes (1988) Trend Neurosci. 11: 163–169. The effect of Compound 1 on the acquisition of spatial memory in the Morris water maze was tested. Rats received 4 consecutive training trials every day. Compound 1 (1 mg/kg) was daily injected (i.p., 1 mg/kg) 10 min before the first trial of training. […] The escape latencies of 2˜4 trials were 93.8±8.7 s, 79.3±12/3 s and 57.6±12.5 s for a control group, and 50.4±10.2 s, 47.3±6.8 s and 30.3±10.3 for the Compound 1 group (n=10), respectively. The escape latencies of the first trial on the following 3 training days were also markedly shortened in the Compound 1 group. The escape latencies were 91.1±9.8 s, 47.1±3.9 s and 35.3±6.1 s for the control group, and 55.4±12.8 s, 15.3±2.1 s, and 13.4±1.7 s for the Compound 1 group (n=10), respectively. […] The escape latency is shorter in the Compound 1 group throughout the whole experimental period up to 21 days although Compound 1 was only administered […] for 4 days. The mean escape latency on the day-21 is 13.5±1.8 s and 6.0±0.5 s (n=10 each) for the control group and the Compound 1 group, respectively. From results shown above, Compound 1 is a promising drug for improving learning and memory. Compound 1 was mixed with 1.25% carboxymethylcellulose (CMC) and orally delivered to stomach (10 mg/kg) directly 30 min before the first trial for 6 successive days.
Since L-NAME antagonized Compound 1-induced LTP enhancement in hippocampal slices, in vivo experiments were performed to test the effect of L-NAME on the improved learning and memory provoked by Compound 1. In these experiments, rats chronically implanted with cannulae were injected intracerebroventrically with L-NAME (1 mmole/10 mL) or saline 10 min before the first trial of daily training, concomitant with i.p. injection of Compound 1 (1 mg/kg). […] Intracerebroventricular administration of KT 5823 also impaired the Compound 1-induced enhancement.

[1] = tested on: Schaffer collateral-CA1 pathway of rat hippocampal slices; experiment: LTP induction in Schaffer collateral-CA1 pathway of hippocampal slices (fEPSP slope); type: cell-based, Wistar rats; settings: fEPSP slope 60 min after weak tetanus (50 Hz, 0.5 s); 1.6 μM perfused 3 min before and 3 min after tetanus
[2] = tested on: hippocampal slices taken from young rats; experiment: Plasticity induced by low-frequency stimulation (LTD) in hippocampal slices; type: cell-based, Wistar rats; settings: 0.02 Hz stimulation; alone
Method: After decapitation, brains of either adult ([…], for the induction of long-term potentiation) or young (2–3 weeks old, for the induction of long-term depression) Wistar rats were rapidly removed, and the hippocampus was dissected out. Transverse hippocampal slices (450 μm thickness) were immediately placed in an ice-cold cutting buffer containing 124 mM NaCl, 3 mM KCl, 1.0 mM Na2HPO4, 25 mM NaHCO3, 0.5 mM CaCl2, 5.0 mM MgSO4, 10 mM glucose, saturated with 95% O2 and 5% CO2. The slices were then maintained in an interface chamber at room temperature, and perfused at flow rate of 1–2 mL/min with artificial cerebrospinal fluid (ACSF). The composition of ACSF contained 124 mM NaCl, 4.4 mM KCl, 1.0 mM Na2HPO4, 25 mM NaHCO3, 2.0 mM or 2.5 mM CaCl2, 1.0 mM MgSO4, 10 mM glucose, gassed with 95% O2 and 5% CO2. The field Excitatory Postsynaptic Potentials (fEPSP) was evoked by test pulses through a bipolar stimulating electrode placed on the Schaffer collateral/commissural pathway, and recorded from the stratum radiatum of CA1 using a glass micropipette electrode (5–10 MΩ) filled with 2 M NaCl. The test pulse duration was 100 μsec, and test responses were elicited at 0.02 Hz. To record field potentials in the cortico-amygdala pathway, a stimulating electrode was placed in the external capsule, which contained fibers from the auditory cortex to the lateral amygdala. Bicuculine (10 μM) was present in the perfusion solution when the fEPSPs of amygdala were recorded. To increase the effectiveness of fused pyrazolyl compounds that were applied through the perfusion system, the ACSF level in the recording chamber was sufficiently high to cover the hippocampal slices but not to float them. All fused pyrazolyl compounds were perfused in ACSF.
Evoked fEPSPs were recorded and data were analyzed. The initial slope of the fEPSPs was calculated, and the data were expressed as percentages of the average of the base-line slope of the fEPSPs.
Compound 1 on plasticity induced by low-frequency stimulation (LFS): LFS (900 pulses at 1 Hz) was delivered to hippocampal slices taken from young rats ([…]) to induce long-term depression (LTD). Stimulation of hippocampal slices at 1 Hz for 3 min produced no LTD of synaptic transmission. However, this short-duration LFS induced significant LTD in the presence of Compound 1 (83.4±10.9%, n=3). […] A weaker electrical stimulation at 0.02 Hz was delivered in the presence of both nitric oxide donor nitroprusside ([…]) and Compound 1 (1.6 μM). Simultaneous perfusion of the nitric oxide donor nitroprusside (30 μM) and Compound 1 (1.6 μM) induced LTD.

Compound	fEPSP [1]	also measured
COC(=O)[C@@H](N)CCCNC(=N)N[N+](=O)[O-] [L-NAME, N^G-nitro-L-arginine-methylester, reference compound]		effect of L-NAME on the task (rats (spatial memory)): profound amnesia
COc1ccc2c(-c3ccc(CO)o3)nn(Cc3ccccc3)c2c1 [Compound 5]	180.8%	
nitroprusside [reference compound]		potentiation of fEPSP at 0.02 Hz stimulation, substance alone [2]: produced no potentiation
COC(=O)c1ccc(-c2n[nH]c3ccccc23)o1 [Compound 8]	180.6%	
OCc1ccc(-c2nn(Cc3ccccc3)c3cc4c(cc23)OCO4)o1 [Compound 6]	260.3%	
COC(=O)c1ccc(-c2nn(Cc3ccccc3)c3ccccc23)o1 [Compound 7]	200.3%	
COCc1ccc(-c2nn(Cc3ccccc3)c3ccccc23)o1 [Compound 4]	216.9%	
OCc1ccc(-c2nn(Cc3ccccc3)c3cc(F)ccc23)o1 [Compound 3]	218.9%	
CNCc1ccc(-c2nn(Cc3ccccc3)c3ccccc23)o1 [Compound 2]	165.9%	
